Test results published in PubChem BioAssay AID2060484 (Molecular Pharmacology Branch, DTP, NCI, 2025).

System: SUM149PT spheroids with HUVEC/MSC, viability
Assay: Anticancer human tumor SUM149PT cell line growth inhibition [GQUAD];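 further: spheroids exposed to drugs for seven days before readout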;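 on viability, T/C: percent viability relative to DMSO vehicle control taken as 100%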
Conditions: for IC50: curve of first compound; for viability, T/C: stronger effect = lower value; active means viability on the fitted dose curve at most 10% of control; inactive means the rest
From the text: DNA G-quadruplex Stabilizer Agents in Combinations in Complex Spheroids
A high-throughput screen of multi-cell type tumor spheroids was designed to identify active combinations of DNA G-quadruplex stabilizer agents and targeted small molecules. Complex spheroids include a stromal component modeled by human endothelial cells (HUVEC) and fibroblasts modeled by human mesenchymal stem cells (MSCs). The concentration ranges selected for each drug and investigational agent were based upon clinically achievable concentrations if the clinical Cmax of the agent was known.
Compounds. The drugs and investigational agents: pidnarulex (CX-5461; NSC782164), APTO-253 (NSC789042), BRACO-19 (NSC847499), peposertib (NSC802822), ceralasertib (NSC780249), elimusertib (NSC800525), camonsertib (NSC841442), AZD-1390 (NSC803789), olaparib (NSC753686), talazoparib (NSC767125), ART-558 (NSC835418), sotorasib (NSC818433), MRTX-1133 (NSC836407), SN-38 (NSC673596), topotecan (NSC609699), etoposide (NSC141540), doxorubicin (NSC123127), gemcitabine (NSC613327), 5-fluorouracil (NSC19893), paclitaxel (NSC125973), vemurafenib (NSC761431), panobinostat (NSC761190), R-306465 (JNJ-16241199; NSC773264), adavosertib (NSC754352), TP-3654 (NSC805149), carboplatin (NSC241240), KSQ-4279 (NSC840948), and staurosporine (NSC755774) were obtained from the National Cancer Institute (NCI) Developmental Therapeutics Program Chemical Repository (34). The FDA-approved anticancer drug set is available from the NCI Developmental Therapeutics Program. […] The stock solutions were prepared in dimethyl sulfoxide (DMSO, Sigma-Aldrich, St. Louis, MO, cat. D2650) at 800-fold the tested concentration and stored at -70 degrees C prior to their use. All drugs and investigational agents were tested over a range starting from a high concentration at or near the clinical Cmax and decreasing in half-log increments. If the clinical Cmax for an agent had not been determined, the highest concentration tested was 10 microM.
2.3 Cell Culture. All cells were maintained in an incubator at 37 degrees C and 5% CO2 with 95% humidity. The PDC lines were cultured according to standard operating procedures established by the NCI PDMR. All PDCs were thawed and cultured in Matrigel-coated flasks prepared with a working solution of 1X Ham's F-12 nutrient mix, without supplementation (Invitrogen, cat. 11765054), 100 U/mL penicillin-streptomycin (Invitrogen, cat. 15140122), and 2.5% Matrigel (Corning Inc., cat. 354248) for the first three passages. The 857933-349-R-J2-PDC line was cultured in 6C/Colon 1B media, which includes advanced DMEM/F-12 (Thermo Fisher Scientific, cat. 12634028), 10 mM HEPES (Thermo Fisher Scientific, cat. 15630080), 1X GlutaMAX supplement (Thermo Fisher Scientific, cat. 35050061), 0.1 mg/mL primocin (InvivoGen, cat. ant-pm-2), 10% defined fetal bovine serum, heat inactivated (HyClone Laboratories Inc., cat. SH30070.03HI), 50% L-WRN conditioned media (ATCC, cat. CRL-3276), 1.25 mM N-Acetyl-L-cysteine (Sigma-Aldrich, cat. A9165), 10 mM nicotinamide (Sigma-Aldrich, cat. N0636), 1X B-27 supplement (Thermo Fisher Scientific, cat. 17504044), 1X N-2 supplement (Thermo Fisher Scientific, cat. 17502048), 10 microM Y-27632 dihydrochloride (Tocris Bioscience, cat. 1254), and 50 ng/mL human EGF recombinant protein (Thermo Fisher Scientific, cat. PHG0311). The 485176-168-R4-J1-PDC line was cultured in Panc media, which includes all 6C/Colon 1B media components plus 100 ng/mL human FGF-10 (Thermo Fisher Scientific, cat. 100-26), 500 nM SB-431542 (Selleckchem, cat. S1067), and gastrin (Tocris, cat. 3006).
[…]

[1] = second compound 0.0316 µM, first compound 0.0316 µM
[2] = second compound 0.0316 µM, first compound 0.316 µM
[3] = second compound 0.1 µM, first compound 0.0316 µM
[4] = second compound 0.1 µM, first compound 0.316 µM
[5] = second compound 0.316 µM, first compound 0.0316 µM
[6] = second compound 0.316 µM, first compound 0.316 µM
[7] = second compound 1 µM, first compound 0.0316 µM
[8] = second compound 1 µM, first compound 0.316 µM
[9] = second compound 3.16 µM, first compound 0.0316 µM
[10] = second compound 3.16 µM, first compound 0.316 µM
[11] = second compound 10 µM, first compound 0.0316 µM
[12] = second compound 10 µM, first compound 0.316 µM

CCc1c2c(nc3ccc(O)cc13)-c1cc3c(c(=O)n1C2)COC(=O)[C@]3(O)CC + CN(C)c1ccc(Nc2c3ccc(NC(=O)CCN4CCCC4)cc3nc3cc(NC(=O)CCN4CCCC4)ccc23)cc1
6.81 nM: IC50 (second compound 10 µM)
14.8 nM: IC50 (second compound 0.1 µM)
11.9 nM: IC50 (second compound 0.0316 µM)
6.73 nM: IC50 (second compound 1 µM)
inactive: viability, T/C (second compound 0.0316 µM, first compound 0.000999 µM) 80% | viability, T/C (second compound 0.0316 µM, first compound 0.00316 µM) 44% | viability, T/C (second compound 0.0316 µM, first compound 0.00999 µM) 54.6% | viability, T/C [1] 45.9% | viability, T/C (second compound 0.0316 µM, first compound 0.0999 µM) 38.9% | viability, T/C [2] 20.7% | viability, T/C (second compound 0.1 µM, first compound 0.000999 µM) 70.2% | viability, T/C (second compound 0.1 µM, first compound 0.00316 µM) 45.6% | viability, T/C (second compound 0.1 µM, first compound 0.00999 µM) 52.8% | viability, T/C [3] 48.1% | viability, T/C (second compound 0.1 µM, first compound 0.0999 µM) 41.6% | viability, T/C [4] 23.5% | viability, T/C (second compound 0.316 µM, first compound 0.000999 µM) 64.1% | viability, T/C (second compound 0.316 µM, first compound 0.00316 µM) 45.7% | viability, T/C (second compound 0.316 µM, first compound 0.00999 µM) 45.3% | viability, T/C [5] 47.5% | viability, T/C (second compound 0.316 µM, first compound 0.0999 µM) 37.7% | viability, T/C [6] 26% | viability, T/C (second compound 1 µM, first compound 0.000999 µM) 63.8% | viability, T/C (second compound 1 µM, first compound 0.00316 µM) 42.2% | viability, T/C (second compound 1 µM, first compound 0.00999 µM) 47.2% | viability, T/C [7] 48.8% | viability, T/C (second compound 1 µM, first compound 0.0999 µM) 35.5% | viability, T/C [8] 23.5% | viability, T/C (second compound 3.16 µM, first compound 0.000999 µM) 64.1% | viability, T/C (second compound 3.16 µM, first compound 0.00316 µM) 42.1% | viability, T/C (second compound 3.16 µM, first compound 0.00999 µM) 47.2% | viability, T/C [9] 46.1% | viability, T/C (second compound 3.16 µM, first compound 0.0999 µM) 35.6% | viability, T/C [10] 23.5% | viability, T/C (second compound 10 µM, first compound 0.000999 µM) 67.2% | viability, T/C (second compound 10 µM, first compound 0.00316 µM) 39.2% | viability, T/C (second compound 10 µM, first compound 0.00999 µM) 49.1% | viability, T/C [11] 46.8% | viability, T/C (second compound 10 µM, first compound 0.0999 µM) 37.2% | viability, T/C [12] 22.4%
5.8 nM: IC50 (second compound 3.16 µM)
6.28 nM: IC50 (second compound 0.316 µM)

Cc1cccc(N(C)C(=O)C2C(O)CCN2c2nc(C)cc(C(F)(F)F)c2C#N)c1 (centres undefined) + CN(C)c1ccc(Nc2c3ccc(NC(=O)CCN4CCCC4)cc3nc3cc(NC(=O)CCN4CCCC4)ccc23)cc1
> 10000 nM: IC50 (second compound 0.0316 µM) | IC50 (second compound 0.1 µM) | IC50 (second compound 0.316 µM) | IC50 (second compound 1 µM) | IC50 (second compound 3.16 µM)
4020 nM: IC50 (second compound 10 µM)
inactive: viability, T/C [1] 97.4% | viability, T/C (second compound 0.0316 µM, first compound 0.1 µM) 103% | viability, T/C [2] 104% | viability, T/C (second compound 0.0316 µM, first compound 1 µM) 103% | viability, T/C (second compound 0.0316 µM, first compound 3.16 µM) 107% | viability, T/C (second compound 0.0316 µM, first compound 10 µM) 110% | viability, T/C [3] 108% | viability, T/C (second compound 0.1 µM, first compound 0.1 µM) 95.3% | viability, T/C [4] 91.5% | viability, T/C (second compound 0.1 µM, first compound 1 µM) 100% | viability, T/C (second compound 0.1 µM, first compound 3.16 µM) 98.7% | viability, T/C (second compound 0.1 µM, first compound 10 µM) 103% | viability, T/C [5] 92.7% | viability, T/C (second compound 0.316 µM, first compound 0.1 µM) 93.7% | viability, T/C [6] 88.7% | viability, T/C (second compound 0.316 µM, first compound 1 µM) 101% | viability, T/C (second compound 0.316 µM, first compound 3.16 µM) 94% | viability, T/C (second compound 0.316 µM, first compound 10 µM) 90.6% | viability, T/C [7] 85.8% | viability, T/C (second compound 1 µM, first compound 0.1 µM) 85.2% | viability, T/C [8] 76.2% | viability, T/C (second compound 1 µM, first compound 1 µM) 87.9% | viability, T/C (second compound 1 µM, first compound 3.16 µM) 84.9% | viability, T/C (second compound 1 µM, first compound 10 µM) 81.5% | viability, T/C [9] 99.2% | viability, T/C (second compound 3.16 µM, first compound 0.1 µM) 71% | viability, T/C [10] 77.2% | viability, T/C (second compound 3.16 µM, first compound 1 µM) 77.1% | viability, T/C (second compound 3.16 µM, first compound 3.16 µM) 91.2% | viability, T/C (second compound 3.16 µM, first compound 10 µM) 68% | viability, T/C [11] 82.1% | viability, T/C (second compound 10 µM, first compound 0.1 µM) 82.3% | viability, T/C [12] 74.3% | viability, T/C (second compound 10 µM, first compound 1 µM) 76% | viability, T/C (second compound 10 µM, first compound 3.16 µM) 53% | viability, T/C (second compound 10 µM, first compound 10 µM) 37.9%
